The source of these data is ChEMBL document CHEMBL1201862, “PubChem BioAssay data set” (2004).

Among the test systems are DMS-273; KM-20L2; LXFL 529; SF-268; SF-539; XF498; T47D; RXF 631.
Holding throughout (assay): inhibition of tumour cell growth, NCI panel, 48 h

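Values below derive from 48-hour exposures of cells grown in 96-well plates, with endpoints linearly interpolated between the two concentrations bracketing the appropriate inhibition level. Here, GI50 denotes the concentration required for 50% inhibition of growth.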 The source made the active and inactive calls. No stated cut-off is given here; in the data, active = GI50 up to about 1.1 µM and inactive = higher. Where only a bound is given, the exact number is not on record here.

Take `Cn1c(=O)n(CC2CS2)c2ccccc21` (stereo unspecified): the GI50 with DMS-273, in the assay with KM-20L2, in the assay with LXFL 529, with SF-268, with SF-539 and in the assay on XF498 was > 100 µM (inactive) throughout.

Take `CN1Cc2cc(O)c(O)cc2C(O)C1` (stereo unspecified): the GI50 with SF-268, in the assay on SF-539 and in the assay with T47D was > 100 µM (inactive) in each case.

Consider `O=C1CC(/C=C/c2ccco2)=C(O)C1=O`, for which the GI50 in the assay with SF-268 was 18.6 µM (inactive); with SF-539, 13.9 µM (inactive); with T47D, 14.2 µM (inactive).

Consider `COc1cc(C2C3=C(CCC3=O)Oc3cc4c(cc32)OCO4)cc(OC)c1OC` (stereo unspecified), for which the GI50 in the assay on DMS-273 is 0.158 µM (active); with KM-20L2, 0.238 µM (active); in the assay on RXF 631, 0.367 µM (active); in the assay on XF498, 0.122 µM (active).

`CC(C)=CC(=O)OC1C2C(C)C(=O)OC2C(O)C(C)C2C=CC(=O)C21C` (stereo unspecified): the GI50 in the assay with DMS-273 is 4.25 µM (inactive); in the assay with KM-20L2, 3.42 µM (inactive); in the assay on SF-268 it was 1.57 µM (inactive); in the assay on SF-539, 3.61 µM (inactive); in the assay with XF498, 5.08 µM (inactive).

On to `CN1OC(=O)N(C)C1c1ccccc1` (stereo unspecified), for which the GI50 in the assay on DMS-273, in the assay with KM-20L2, in the assay with SF-268, in the assay with SF-539 and with XF498 was > 100 µM (inactive) in each case.
